Reference: ChEMBL document CHEMBL6078706, “Deciphering the Comprehensive Structure-Activity Relationship of Sunshinamide for Breast Cancer Therapy through Dual Modulation of Apoptotic and Ferroptotic Pathways via TrxR1 and Gpx4 Inhibition” (J Med Chem, 2024)
The source made the active and inactive calls. No cut-off for these calls is given here.

What was measured:
[1] = Toxicity in female BALB/c mouse implanted with mouse 4T1 cells assessed as heart damage at 10 mg/kg, iv; assay type: organism-based; conditions: in vivo
4T1 [2] = test: Antitumor activity against mouse 4T1 cells implanted in female BALB/c mouse model assessed as reduction in proportion of CD11b+ IL-6+ cells in tumor at 10 mg/kg, iv administered upto 5 days; assay type: functional, organism-based; conditions: time <= 5.0 day
4T1 [3] = test: Antitumor activity against mouse 4T1 cells implanted in female BALB/c mouse model assessed as increase in IFN-gamma expression in tumor at 10 mg/kg, iv administered upto 5 days; assay type: functional, organism-based; conditions: time <= 5.0 day
[4] = Toxicity in female BALB/c mouse implanted with mouse 4T1 cells assessed as liver abnormality at 10 mg/kg, iv; assay type: organism-based; conditions: in vivo
[5] = Toxicity in female BALB/c mouse implanted with mouse 4T1 cells assessed as heart abnormality at 10 mg/kg, iv; assay type: organism-based; conditions: in vivo
[6] = Toxicity in female BALB/c mouse implanted with mouse 4T1 cells assessed as kidney inflammation at 10 mg/kg, iv; assay type: organism-based; conditions: in vivo
MDA-MB-468 [7] = test: Induction of endoplasmic reticulum (ER) stress-mediated apoptosis in human MDA-MB-468 cells assessed as increase in CHOP expression at 25 nM measured at 2 hrs by Western blot analysis; assay type: functional, cell-based
MDA-MB-468 [8] = test: Induction of apoptosis in human MDA-MB-468 cells assessed as increase in activation of caspase at 25 nM by Western blot analysis; assay type: functional, cell-based; conditions: time 24.0 hrs
[9] = Toxicity in female BALB/c mouse implanted with mouse 4T1 cells assessed as liver damage at 10 mg/kg, iv; assay type: organism-based; conditions: in vivo
[10] = Toxicity in female BALB/c mouse implanted with mouse 4T1 cells assessed as kidney damage at 10 mg/kg, iv; assay type: organism-based; conditions: in vivo
4T1 [11] = test: Antitumor activity against mouse 4T1 cells implanted in female BALB/c mouse assessed as tumor growth inhibition at 10 mg/kg, iv administered upto 5 days; assay type: functional, organism-based; conditions: time <= 5.0 day
4T1 [12] = test: Antitumor activity against mouse 4T1 cells implanted in female BALB/c mouse assessed as increase in phospho eIF2alpha level in tumor at 10 mg/kg, iv administered upto 5 days by Western blot analysis; assay type: functional, organism-based; conditions: time <= 5.0 day
[13] = Toxicity in female BALB/c mouse implanted with mouse 4T1 cells assessed as kidney abnormality at 10 mg/kg, iv; assay type: organism-based; conditions: in vivo
4T1 [14] = test: Antitumor immunity against mouse 4T1 cells implanted in female BALB/c mouse model assessed as increase in ratio of CD8+ T cells to CD4+ T cells at 10 mg/kg, iv administered upto 5 days by flow cytometry analysis; assay type: functional, organism-based; conditions: time <= 5.0 day
MDA-MB-468 [15] = test: Induction of mitochondrial dysfunction in human MDA-MB-468 cells assessed as reduction in oxygen consumption rate (OCR) at 25 nM; assay type: functional, cell-based
4T1 [16] = test: Antitumor activity against mouse 4T1 cells implanted in female BALB/c mouse assessed as induction of intracellular ROS accumulation in tumor at 10 mg/kg, iv administered upto 5 days; assay type: functional, organism-based; conditions: time <= 5.0 day
Cisplatin-resistant 4T1 [17] = test: Antiproliferative activity against mouse Cisplatin-resistant 4T1 cells assessed as reduction in cell viability incubated for 48 hrs by MTT assay; assay type: functional, cell-based
[18] = Toxicity in female BALB/c mouse implanted with mouse 4T1 cells assessed as lung damage at 10 mg/kg, iv; assay type: organism-based; conditions: in vivo
4T1 [19] = test: Antitumor immunity against mouse 4T1 cells implanted in female BALB/c mouse model assessed as increase in proportion of tumor infiltrating CD8+ T cell at 10 mg/kg, iv administered upto 5 days by flow cytometry analysis; assay type: functional, organism-based; conditions: time <= 5.0 day
4T1 [20] = test: Antitumor activity against mouse 4T1 cells implanted in female BALB/c mouse assessed as reduction in tumor weight at 10 mg/kg, iv administered upto 5 days; assay type: functional, organism-based; conditions: time <= 5.0 day
MDA-MB-468 [21] = test: Antiproliferative activity against human MDA-MB-468 cells assessed as reduction in cell viability at 50 nM incubated for 48 hrs in presence of Z-VAD by MTT assay; assay type: functional, cell-based
HEK293 = test: Antiproliferative activity against human HEK293 cells assessed as cell viability at 10 nM incubated for 48 hrs by MTT assay; assay type: toxicity, cell-based; conditions: hek293, 48 h, 0.01 µM
MDA-MB-468 [22] = test: Antiproliferative activity against human MDA-MB-468 cells assessed as reduction in cell viability at 50 nM incubated for 48 hrs in presence of N-acetyl cysteine by MTT assay; assay type: functional, cell-based
4T1 [23] = test: Antitumor activity against mouse 4T1 cells implanted in female BALB/c mouse model assessed as increase in TNF-alpha expression in tumor at 10 mg/kg, iv administered upto 5 days; assay type: functional, organism-based; conditions: time <= 5.0 day
[24] = Toxicity in female BALB/c mouse implanted with mouse 4T1 cells assessed as lung lesion at 10 mg/kg, iv; assay type: organism-based; conditions: in vivo
[25] = Toxicity in female BALB/c mouse implanted with mouse 4T1 cells assessed as spleen inflammation at 10 mg/kg, iv; assay type: organism-based; conditions: in vivo
Cisplatin-resistant 4T1 [26] = test: Antitumor activity against mouse Cisplatin-resistant 4T1 cells implanted in female BALB/c mouse assessed as reduction in tumor weight at 10 mg/kg, ip; assay type: functional, organism-based
MDA-MB-468 [27] = test: Induction of ROS production in human MDA-MB-468 cells assessed as increase in fluorescent signal at 25 nM incubated for 6 hrs in presence of N-acetyl cysteine by DCFH-DA staining based flow cytometry analysis; assay type: functional, cell-based
A549 = test: Antiproliferative activity against human A549 cells assessed as cell viability at 10 nM incubated for 48 hrs by MTT assay; assay type: functional, cell-based
[28] = Toxicity in female BALB/c mouse implanted with mouse 4T1 cells assessed as heart lesion at 10 mg/kg, iv; assay type: organism-based; conditions: in vivo
MDA-MB-468 [29] = test: Induction of apoptosis in human MDA-MB-468 cells assessed as increase in caspase 3/7 activation at 25 nM measured at 4 hrs by Western blot analysis; assay type: functional, cell-based
[30] = Toxicity in female BALB/c mouse implanted with mouse 4T1 cells assessed as liver inflammation at 10 mg/kg, iv; assay type: organism-based; conditions: in vivo
4T1 [31] = test: Antitumor activity against mouse 4T1 cells implanted in female BALB/c mouse assessed as reduction in tumor volume at 10 mg/kg, iv administered upto 5 days; assay type: functional, organism-based; conditions: time <= 5.0 day
4T1 [32] = test: Antitumor activity against mouse 4T1 cells implanted in female BALB/c mouse assessed as increase in 4-HNE level in tumor at 10 mg/kg, iv administered upto 5 days by Western blot analysis; assay type: functional, organism-based; conditions: time <= 5.0 day
[33] = Toxicity in female BALB/c mouse implanted with mouse 4T1 cells assessed as spleen abnormality at 10 mg/kg, iv; assay type: organism-based; conditions: in vivo
MDA-MB-468 [34] = test: Induction of ROS production in human MDA-MB-468 cells assessed as increase in fluorescent signal at 25 nM incubated for 6 hrs by DCFH-DA staining based flow cytometry analysis; assay type: functional, cell-based
MDA-MB-468 [35] = test: Inhibition of cell migration in human MDA-MB-468 cells assessed as decrease in cell migration at 25 nM incubated for 48 hrs by wound healing assay; assay type: functional, cell-based
4T1 [36] = test: Antitumor activity against mouse 4T1 cells implanted in female BALB/c mouse assessed as increase in MDA level in tumor at 10 mg/kg, iv administered upto 5 days by Western blot analysis; assay type: functional, organism-based; conditions: time <= 5.0 day

Compound: CCCCCCC[C@@H]1CC(=O)N[C@H](Cc2ccccc2)C(=O)N[C@H]2CSSC[C@H](NC2=O)C(=O)O1
- Activity [1]: Non-toxic
- Activity (4T1 [2]): Active
- Activity (4T1 [3]): Active
- Activity [4]: Non-toxic
- Activity [5]: Non-toxic
- Activity [6]: Non-toxic
- Activity (MDA-MB-468 [7]): Active
- Activity (MDA-MB-468 [8]): Time-dependent-effect
- Activity [9]: Non-toxic
- Activity [10]: Non-toxic
- TGI (4T1 [11]): Active
- Activity (4T1 [12]): Active
- Activity [13]: Non-toxic
- Activity (4T1 [14]): Active
- Activity (MDA-MB-468 [15]): Active
- Activity (4T1 [16]): Active
- Activity (Cisplatin-resistant 4T1 [17]): Active
- Activity [18]: Non-toxic
- Activity (4T1 [19]): Active
- Activity (4T1 [20]): Active
- Activity (MDA-MB-468 [21]): Active
- Activity (HEK293): Non-toxic
- Activity (MDA-MB-468 [22]): Active
- Activity (4T1 [23]): Active
- Activity [24]: Non-toxic
- Activity [25]: Non-toxic
- Activity (Cisplatin-resistant 4T1 [26]): Active
- Activity (MDA-MB-468 [27]): Active
- Activity (A549): Active
- Activity [28]: Non-toxic
- Activity (MDA-MB-468 [29]): Active
- Activity [30]: Non-toxic
- Activity (4T1 [31]): Active
- Activity (4T1 [32]): Active
- Activity [33]: Non-toxic
- Activity (MDA-MB-468 [34]): Active
- inhibition (MDA-MB-468 [35]): Active
- Activity (4T1 [36]): Active
